Reference: patent US20240216376A1, “COMBINATION THERAPIES FOR THE TREATMENT OF CANCER” (Duke University, priority 2021, published 2024)

What was measured:
AKT [1] = assay: Western immunoblot of AKT phosphorylation in AML cell lines; format: cell-based
Method: (§1) Protein lysates were prepared with 1×CST Lysis Buffer (CST #9803) supplemented with 1× cOmplete protease inhibitor cocktail (Roche #04693124001) and 1× PhosSTOP phosphatase inhibitor (Roche #04906837001). Crude lysates were rotated for 15 minutes with lysis buffer, cleared by centrifugation at 13,000 rpm for 10 minutes at 4° C. and normalized by total protein content using standard Bradford analysis. Membranes were probed with primary antibodies β-actin (13E5) (CST #4970 diluted 1:5000 in 5% BSA), p-AKT T308 (244F9) (CST #4056 diluted 1:1000 in 5% BSA), p-AKT S473 (D9E) (CST #4060 diluted 1:1000 in 5% BSA), T-AKT (C67E7) (CST #4691 diluted 1:3000 in 5% BSA), p-GSK3B S9 (D85E12) (CST #5558 diluted 1:1000 in 5% BSA), p-BAD S136 (D25H8) (CST #4366 diluted 1:1000 in 5% BSA), CRM1 (C-1) (sc #74454 diluted 1:100 in 5% BSA), cleaved-PARP (D64E10) (CST #5625 diluted 1:1000 in 5% BSA), cleaved-Caspase3 D175 (CST #9661 diluted 1:500 in 5% BSA), p110-g (D55D5) (CST #5405 diluted 1:1000 in 5% BSA), p110α (C73F8) (CST #4249 diluted 1:1000 in 5% BSA), p110β (C33D4) (CST #3011 diluted 1:1000 in 5% BSA), p1108 (D1Q7R) (CST #34050 diluted 1:1000 in 5% BSA) or p101 (D32A5) (CST #5569 diluted 1:1000 in 5% BSA) overnight (16 hours). Following incubation with HRP-conjugated secondary antibody, blots were developed with SuperSignal West Pico PLUS Chemiluminescent Substrate (ThermoFisher) or ECL Western Blotting Substrate (ThermoFisher).
To validate selinexor's ability to activate PI3K/AKT signaling, each of five AML cell lines was treated with selinexor for 24 hours before performing western blot analysis. […] Additional AKT-dependent phosphorylation marks on PRAS40, FOXO3a, and TSC2 were also assessed in OCI-AML2 cells and found to be increased. This phosphorylation pattern was indicative of activated AKT signaling. To characterize the kinetics of selinexor-induced AKT activation, AML cells were treated with selinexor and collected samples at interval time points up to 48 hours. Across multiple cell lines, activation of AKT signaling was observed starting at 8-24 hours (FIG. 2B). […] The delays between treatment and AKT activation, observed both in vivo and in vitro, were not inconsistent with the presumption that selinexor primarily acts through transcriptional mechanisms. Finally, to assess the exclusivity of these findings for selinexor, cells were treated with a panel of eight additional anti-leukemic drugs for 24 hours.

RAS = assay: Ras-GTP immunoprecipitation (RAF1-RBD pulldown); format: cell-based
Source text: Active GTP bound Ras was pulled down and detected using the Active Ras Pull-Down and Detection Kit (Thermo Scientific, #16117) according to manufacturer's instruction. At least 10×10^6 cells were used in pull-down and lysates were normalized to ensure equal protein input across DMSO and selinexor-treated samples within each cell line.

AML cell lines = assay: Short-term drug sensitivity assay (GI50), selinexor plus background drug; format: cell-based; settings: fixed-concentration background drug; for sensitization to selinexor (relative selinexor GI50), PI3K isoform-specific inhibitor background: panel of AML cell lines; for sensitization to selinexor (relative selinexor GI50), AKT or MEK/ERK inhibitor background: panel of eight AML cell lines, 72 hours
Method: Short-term cell viability assays were conducted. Briefly, AML cells were seeded at a density of 7,500 cells/well, treated with vehicle (DMSO) or a 10-fold serial dilution of selinexor (individually or combination with fixed-concentration background drug) and assessed for viability after 72-hours using Cell Titer Glo (Promega). The relative cell viability was determined by normalizing the raw luminescence values for each treatment condition to either the DMSO-treated well (selinexor individually) or the background drug only well (selinexor combinations). GI50 values approximate the concentration of selinexor required to inhibit growth of cells by 50%. Values were interpolated from dose-response curves plotted using GraphPad/Prism 8 software.

AKT [2] = assay: AKT activation in vivo, syngeneic MLL-AF9-driven model of AML; settings: MLL-AF9 cells from treated mice
[3] = format: in vivo; settings: selinexor 15 mg/kg in mice
Method: Animals transplanted with these AML cells were treated with the combination of selinexor (15 mg/kg, oral gavage) and ipatasertib (65 mg/kg, oral gavage) or either drug alone every other day for ten days.

OCI-AML2 cells [4] = assay: Pooled CRISPR selinexor sensitizer screen, selinexor dose (approx. GI50); format: cell-based; settings: Homo sapiens, 336 h, two-week screen period, approximate, read-out: GI50 concentration
Method: Virus production, titering and transduction was performed as previously described. In short, viral titer (Infectious Units (IFU)/mL) was found by transducing OCI-AML2 cells with a 1:3 dilution series of library virus, selecting cells with puromycin for 2 days and determining multiplicity of infection (MOI) from % of cells infected. Viral titer is equal to (#cells seeded*MOI*Virus dilution factor)/(Volume of virus added to each well). […] For the selinexor sensitizer screen, selinexor was dosed at 100 nM, a concentration that yielded sufficient selective pressure without excessive cell death (approximately the GI50 concentration) over the two-week screen period. […] Genomic DNA was extracted using the DNeasy Blood & Tissue Kit (Qiagen) from 25×10^6 cell samples taken prior to dividing cells into treatment conditions (time zero) and after completion of the two-week screen. Amplification of the sgRNA barcodes and indexing of each sample was performed via 2-step PCR as previously described.

extracellular ATP = assay: Extracellular ATP release in presence of ARL67156; format: cell-based; settings: 36 hours, with ectonucleotidase inhibitor ARL67156, normalized for cell quantity
Method: To assess the role of P2RY2 in selinexor-induced AKT activation, the ability of P2RY2 to activate AKT in the AML cell lines was first tested by culturing cells in the presence of exogenous ATP or UTP. Cells cultured with exogenous ATP activated AKT signaling while cells cultured with exogenous UTP only minimally activated AKT, if at all, prompting the possibility that selinexor may activate AKT signaling through induced release of extracellular ATP. This was tested by treating cells with selinexor versus vehicle in the presence of the ectonucleotidase inhibitor ARL67156 and quantifying the amount of extracellular ATP released after 36 hours.

OCI-AML2 cells [5] = assay: Reverse phase protein array (RPPA) analysis; format: cell-based
Method: OCI-AML2 cells were treated with DMSO or selinexor for 3, 24 and 48-hours at which point 3×10^6 cells were pelleted and frozen at -80° C. RPPA analysis was performed as previously described. All samples were conducted in biological triplicate and normalized to DMSO control at each respective timepoint. Next, it was sought to identify the signaling nodes activated by selinexor treatment. To do this, a reverse phase protein array (RPPA) was used to analyze AML cells treated with DMSO or selinexor for 48 hours, using a dose of selinexor sufficient to provide an on-target effect but not high enough to impose a meaningful selective pressure. The RPPA platform, which provides quantitative measurements of 160 epitopes and phospho-epitopes representing cellular growth, proliferation, and signaling pathways, identified many drug-induced effects, several of which supported previously described mechanisms of selinexor activity. […] (FIG. 1C). […] In addition to corroborating selinexor's established effects, the RPPA data was able to identify selinexor-induced downregulations of phospho-S6 at Ser235/236 and Ser240/244, phospho-elF4G at […], and phospho-4E-BP1 at […], which collectively pointed to suppression of mTORC1 signaling (FIG. 1C). This idea has been raised in multiple myeloma and was further supported here by the reciprocal upregulation of DEPTOR, a negative regulator of mTOR.

MAPK signaling = assay: Western blot of MAPK signaling in AML cell lines; format: cell-based; settings: multiple AML cell lines
Method: as §1, with “Following incubation with HRP-conjugated secondary antibody, blots were developed with SuperSignal West Pico PLUS Chemiluminescent Substrate (ThermoFisher) or ECL Western Blotting Substrate (ThermoFisher).” left out

P2RY2 = assay: qRT-PCR of P2RY2 expression; format: cell-based
Method: RNA was isolated from whole cells with the RNEasy Mini kit (Qiagen). cDNA was reverse transcribed from total RNA samples using iScript cDNA Synthesis Kit with 1 μg of RNA template. qRT-PCR was carried out using iQ SYBR Green Supermix and a CFX384 Touch Real-Time PCR Detection System, according to manufacturer instructions. Fold expression was determined by normalizing cycle threshold (Cq) values to ACTB reference gene and normalizing samples to control sample, in accordance with the ΔΔCq method.

SMILES: Cc1ccc2c(c1)C=Cc1cc(C)ccc1C2c1cn(Cc2ccc(C(=O)Nc3nn[nH]n3)o2)c(=O)[nH]c1=S [AR-C118925XX]
- p-AKT T308 in FLT3-mutant expressing cells (AKT [1]; OCI-AML2 cells expressing D835Y-mutant FLT3): reduced but did not completely ablate the elevated p-AKT T308 signal
- p-AKT T308, baseline (AKT [1]; OCI-AML2 cells expressing GFP, western blot): suppressed p-AKT T308
- effect on selinexor-induced GTP-RAS (RAS; OCI-AML2, AR-C added to selinexor): able to reverse the increased GTP-RAS

SMILES: Cc1nc(NC(=O)N2CCC[C@H]2C(N)=O)sc1-c1ccnc(C(C)(C)C(F)(F)F)c1 [BYL-719]
- sensitization to selinexor (relative selinexor GI50), PI3K isoform-specific inhibitor background (AML cell lines): unable to sensitize any of the cell lines to selinexor

SMILES: CCn1c(-c2nonc2N)nc2c(C#CC(C)(C)O)ncc(OC[C@H]3CCCNC3)c21 [GSK690693]
- sensitization to selinexor (relative selinexor GI50), AKT or MEK/ERK inhibitor background (AML cell lines): capable of sensitizing all eight of the AML cell lines tested to selinexor

SMILES: C[C@H](NC(=O)c1c(N)nn2cccnc12)c1cc2cccc(C#Cc3cnn(C)c3)c2c(=O)n1-c1ccccc1 [IPI-549]
- sensitization to selinexor (relative selinexor GI50), PI3K isoform-specific inhibitor background (AML cell lines): capable of sensitizing each AML cell line to selinexor

SMILES: NC1(c2ccc(-c3nc4ccn5c(=O)[nH]nc5c4cc3-c3ccccc3)cc2)CCC1 [MK-2206]
- sensitization to selinexor (relative selinexor GI50), AKT or MEK/ERK inhibitor background (AML cell lines): capable of sensitizing all eight of the AML cell lines tested to selinexor

SMILES: Cc1cc(C(C)Nc2ccccc2)c2nc(N3CCOCC3)cc(=O)n2c1 (stereo not shown) [TGX-221]
- sensitization to selinexor (relative selinexor GI50), PI3K isoform-specific inhibitor background (AML cell lines): unable to sensitize any of the cell lines to selinexor

SMILES: NC(=O)/C(=C/n1cnc(-c2cc(C(F)(F)F)cc(C(F)(F)F)c2)n1)c1cncnc1 [eltanexor]
- AKT phosphorylation at Thr308 and Ser473 (second-generation CRM1 inhibitor) (AKT [1]; western blot of eltanexor-treated samples): produced consistent phosphorylation of AKT at Thr308 and Ser473

SMILES: CC(C)NC[C@@H](C(=O)N1CCN(c2ncnc3c2[C@H](C)C[C@H]3O)CC1)c1ccc(Cl)cc1 [ipatasertib]
- sensitization to selinexor (relative selinexor GI50), AKT or MEK/ERK inhibitor background (AML cell lines): capable of sensitizing all eight of the AML cell lines tested to selinexor

SMILES: O=C(/C=C\n1cnc(-c2cc(C(F)(F)F)cc(C(F)(F)F)c2)n1)NNc1cnccn1 [selinexor]
- start of AKT activation after treatment (AKT [2]): 6 to 8 h
- on-target response [3]: induction of p53
- AKT phosphorylation at Thr308 and Ser473 (AKT [1]; five AML cell lines, selinexor 24 hours, western blot): increased AKT phosphorylation at both Thr308 and Ser473
- start of activation of AKT signaling (AKT [1]; multiple AML cell lines, time points up to 48 hours): 8 to 24 h
- GI50 (OCI-AML2 cells [4]): ~100 nM
- extracellular ATP released (extracellular ATP): no increase in extracellular ATP
- RPPA expression of phospho-AKT (Thr308 and Ser473) (OCI-AML2 cells [5]; OCI-AML2 cells, 48 hours selinexor vs DMSO): two of the strongest upregulations identified by RPPA were reserved for AKT
- RPPA phospho-ERK at Thr202/Tyr204 (OCI-AML2 cells [5]; selinexor- versus vehicle-treated cells): an increase in phopho-ERK at Thr202/Tyr204
- GTP-RAS (RAS; five AML cell lines, selinexor- versus vehicle-treated): increased GTP-RAS
- MAPK signaling (MAPK signaling): activated MAPK signaling in a P2RY2 dependent manner
- P2RY2 expression (P2RY2; each of five AML cell lines, vs DMSO control): increased P2RY2 expression
- time course of P2RY2 transcriptional upregulation (P2RY2; qRT-PCR, up to 48 hours): transcriptional upregulation of P2RY2 starting at 12 and increasing through 48 hours
